Inhibition data for 7 molecules are collected here from ChEMBL document CHEMBL1157862, “Synthesis and pharmacological evaluation of novel fused thiophene derivatives as 5-HT2A receptor antagonists: molecular modeling study” (Eur J Med Chem, 2010).

The structures appear in SMILES notation.

Chain of 5-hydroxytryptamine receptor 2A (Rattus norvegicus) (P14842 whole entry): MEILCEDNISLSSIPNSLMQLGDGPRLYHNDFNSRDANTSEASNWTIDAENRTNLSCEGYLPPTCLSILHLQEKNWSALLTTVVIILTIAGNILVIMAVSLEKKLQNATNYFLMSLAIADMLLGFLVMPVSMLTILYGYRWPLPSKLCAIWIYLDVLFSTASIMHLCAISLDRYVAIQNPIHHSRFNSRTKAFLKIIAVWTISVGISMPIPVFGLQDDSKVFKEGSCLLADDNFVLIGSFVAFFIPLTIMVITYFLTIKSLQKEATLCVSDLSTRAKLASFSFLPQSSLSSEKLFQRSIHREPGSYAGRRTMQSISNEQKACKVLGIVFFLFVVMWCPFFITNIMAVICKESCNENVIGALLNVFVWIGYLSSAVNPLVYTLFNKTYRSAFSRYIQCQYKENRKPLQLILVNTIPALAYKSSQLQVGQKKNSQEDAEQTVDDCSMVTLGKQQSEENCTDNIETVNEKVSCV

This assay has as its target 5-hydroxytryptamine receptor 2A (Rattus norvegicus) (UniProt P14842). The experiment in a line: Antagonist activity at 5HT2A receptor in Sprague-Dawley rat assessed as inhibition of 5HT-induced pulmonary arterial pressure at 100 uM relative to 5HT. Format: functional.
For orientation: inhibition means the change of the read-out against control, counted positive when it falls. `CN1CCc2c(sc3[nH]c(=O)n(CCN4CCN(c5ccccc5)CC4)c(=O)c23)C1`: the inhibition was 60%. With `O=c1[nH]c2sc3c(c2c(=O)n1CCN1CCN(c2ccccc2)CC1)CCC3`, the inhibition is 86%. For the molecule `CCOC(=O)c1c(NC(=O)CN2CCN(c3ccccc3OCC)CC2)sc2c1CCN(C)C2`, the inhibition was 65%.

Regarding `CCOC(=O)c1c(NC(=O)CN2CCN(c3ccccc3OC)CC2)sc2c1CCN(C)C2`, the inhibition was 88%. As for `CCOC(=O)c1c(NC(=O)CN2CCN(c3ccccc3)CC2)sc2c1CCN(C)C2`, the inhibition turned out to be 62%. Then `CN1CCc2c(sc3[nH]c(=O)n(CCN4CCN(c5ccc(F)cc5)CC4)c(=O)c23)C1`, with 63%. For the molecule `COc1ccccc1N1CCN(CCn2c(=O)[nH]c3sc4c(c3c2=O)CCN(C)C4)CC1`, the inhibition was 65%.
